Results: patent US12590093B2, “Indolo[2′,3′:3,4]pyrido[2,1-b]quinazoline compound and use thereof” (INSTITUTE OF MEDICINAL BIOTECHNOLOGY CHINESE ACADEMY OF …, priority 2019, dated 2026)

Key:
MAPK signaling pathway = experiment: Western-blot of MAPK signaling pathway in ApoE−/− mice; assay type: in vivo; settings: FIG. 8
Experimental: 6-week-old male C57/BL6 ApoE^−/− mice were fed on normal chaw diet for one week. The mice were randomly divided into three groups (control group, high-fat diet model group, and treatment group, 12 mice per group) according to the body weight. From 7-week-old, the high-fat diet model group and the treatment group were fed on a high fat diet (HFD) (0.15% cholesterol and 20% fat), and the control group was fed on normal chow diet. The treatment group (R3) mice were administered intragastrically with TR3 (5 mg/kg). The control group and the high-fat diet model group mice were intragastrically administered with sodium carboxymethylcellulose (CMC-Na) solution. After 12 weeks of administration, all mice were fasted overnight. The blood sample was taken from the retro-orbital plexus, collected in a EP tube, and then centrifuged for 15 min (2500 rpm). The centrifuged serum (upper layer) was transferred to new EP tubes (divided into two aliquots) and stored at −20° C. for further use. The mice were fixed, and the skin was cut open along the midline of the abdomen to the neck. The abdominal cavity was cut open to collect the fresh liver tissue. The Liver tissue was put into 3 freezing tubes, and then immediately put into liquid nitrogen for subsequent detection of liver lipid detection and extraction of RNA and protein. The thorax was cut open to expose the heart. The heart was perfused with 10 ml PBS, and then fixed by perfusion with 4% paraformaldehyde solution until the liver turned white. The fixed liver was taken out and placed in a six-well plate containing 4% paraformaldehyde solution for further fixation. […]
When animal tissues were used to prepare protein samples, the tissues were firstly homogenized and lysed in the RIPA lysis buffer. […] When cell supernatants were used to prepare protein samples, the supernatants were freeze-dried, needed to be extracted using a protein recovery kit (Applygen, Beijing, China), and then analyzed by western-blot. […]

PPARγ = biological target: T1, PPARγ (Homo sapiens, UniProt P37231); experiment: Nuclear receptor reporter gene transient transfection (pBIND-hPPARs-LBD) in HepG2 cells, PPARγ; assay type: cell-based; settings: FIG. 2, result in words
T1 construct: expressed in transfected cells; host or cells: HepG2
T1 sequence (P37231 238-503 limits assumed): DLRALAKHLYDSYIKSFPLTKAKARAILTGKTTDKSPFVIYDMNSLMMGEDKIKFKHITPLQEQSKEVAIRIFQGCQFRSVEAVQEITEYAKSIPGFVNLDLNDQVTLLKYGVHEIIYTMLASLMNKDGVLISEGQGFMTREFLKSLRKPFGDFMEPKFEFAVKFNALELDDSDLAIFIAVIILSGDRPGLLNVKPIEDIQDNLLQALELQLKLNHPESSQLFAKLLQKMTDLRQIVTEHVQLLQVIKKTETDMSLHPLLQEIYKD
Experimental: HepG2 cells in logarithmic growth phase were digested, seeded into the white/clear 96-well plate at a density of 5×10^4 cells/well/100 μL until the cells grew to about 90% confluence and in good condition. 0.5 μL liposome (Lipofectamine® 2000) diluted with blank medium to 25 μL per well and incubated at room temperature for 5 min. The corresponding plasmids DNA (nuclear receptor plasmid:Gal4=1:10) were diluted in blank DMEM medium to 25 μL/well (mixing of two plasmids), then mixed evenly with the diluted liposome, and incubated for 20 min at 37° C. The DNA-liposome complex (50 μL per well) was added with the DMEM complete medium (100 μL per well) and mixed thoroughly to obtain a DNA-liposome complex cell culture. The cell medium was discarded, and replaced with the DNA-liposome complex cell culture (150 μL/well) (37° C., 5% CO2). After 6 h, the DNA-liposome complex cell culture medium was discarded, and 200 μL serum-free DMEM medium containing the compound at an appropriate concentration was added to each test well, and cultured for 18-24 h. The cell Luciferase activity was measured by the method as described in the Luciferase Assay System.

ApoE^−/− mice = experiment: Serum lipid levels in ApoE−/− mice; assay type: in vivo; settings: 5 mg/kg intragastrically, 12 weeks, HFD, versus model group
Experimental: (§1) 6-week-old male C57/BL6 ApoE^−/− mice were fed on normal chaw diet for one week. The mice were randomly divided into three groups (control group, high-fat diet model group, and treatment group, 12 mice per group) according to the body weight. From 7-week-old, the high-fat diet model group and the treatment group were fed on a high fat diet (HFD) (0.15% cholesterol and 20% fat), and the control group was fed on normal chow diet. The treatment group (R3) mice were administered intragastrically with TR3 (5 mg/kg). The control group and the high-fat diet model group mice were intragastrically administered with sodium carboxymethylcellulose (CMC-Na) solution. After 12 weeks of administration, all mice were fasted overnight. The blood sample was taken from the retro-orbital plexus, collected in a EP tube, and then centrifuged for 15 min (2500 rpm). The centrifuged serum (upper layer) was transferred to new EP tubes (divided into two aliquots) and stored at −20° C. for further use. The mice were fixed, and the skin was cut open along the midline of the abdomen to the neck. The abdominal cavity was cut open to collect the fresh liver tissue. The Liver tissue was put into 3 freezing tubes, and then immediately put into liquid nitrogen for subsequent detection of liver lipid detection and extraction of RNA and protein. The thorax was cut open to expose the heart. The heart was perfused with 10 ml PBS, and then fixed by perfusion with 4% paraformaldehyde solution until the liver turned white. The fixed liver was taken out and placed in a six-well plate containing 4% paraformaldehyde solution for further fixation. The full-length aorta (from the ascending aorta to the common iliac arteries) was isolated and placed in a six-well plate containing 4% paraformaldehyde solution. The aorta was fixed in 4% paraformaldehyde solution overnight and then stored in 20% sucrose solution at 4° C.
The plasma biochemical indices were measured by using commercially available kits (Biosino Bio-technology and Science Inc., China) and the automatic biochemical analyzer.

ABCA1 = ABCA1 up-regulation, luciferase reporter in ABCA1P-LUC HepG2 cells; assay type: cell-based; settings: Homo sapiens, 18 h, maximum up-regulation fold of luciferase activity versus DMSO, read-out: ABCA1 max
Experimental: Experiments were conducted to detect whether the compounds of the disclosure can pharmacologically up-regulate the expression of ABCA1 and SR-BI. Firstly, ABCA1P-LUC HepG2 cells or SR-BI-LUC HepG2 cells in logarithmic growth phase were digested, diluted in cell culture medium, and counted. Cells were seeded into 96-well plates at a density of 5×10^5/ml (100 μL of the single-cell suspension per well). After cells fully adhered (about 6 h), the medium containing 10% FBS was removed, and the cells were gently washed with PBS. Serum free MEM-EBSS medium (200 μL per test well) and 2 μL of the compounds to be tested (at a final concentration of 10 μg/mL) were added to each test well, and meanwhile, DMSO at a corresponding concentration was added to the control well. After 18-24 h, the medium was removed. Cell Luciferase activity was measured by a method as described in the Luciferase Assay System. By optimizing the final concentration of DMSO, the treatment time of the compounds on the cells and the number of cells seeded into each well during the screening, the final screening conditions were determined as follows: each well is seeded with 5×10^4 cells, DMSO is added at a final concentration of 1%, and the sample is treated for 18 h.
The ratio of change of luciferase activity is calculated with the following formula: Ratio of change (%)=A/B×100;
wherein A is the luciferase activity (RLU) measured after the compound to be tested is added, and B is the luciferase activity (RLU) measured after the blank control (DMSO) is added. The luciferase activity of cells in each well was measured, and the dose-effect relationship between the concentration of the compound and the ratio of change of the luciferase activity was determined to calculate the EC50.

NLRP3 inflammasome = experiment: Western-blot of NLRP3 inflammasome proteins in liver of ApoE−/− mouse and J774A1 cells; assay type: in vivo, mice
Experimental: as §1
When animal tissues were used to prepare protein samples, the tissues were firstly homogenized and lysed in the RIPA lysis buffer. The subsequent steps were the same as those for preparing protein samples from cells. When cell supernatants were used to prepare protein samples, the supernatants were freeze-dried, needed to be extracted using a protein recovery kit (Applygen, Beijing, China), and then analyzed by western-blot.
The western-blot was used to detect the effects of TR3 on the activation of NLRP3 inflammasome and other related proteins in the liver of ApoE^−/− mouse and J774A1 cells.

[1] = liver of ApoE−/− mouse and J774A1 cells, western-blot, FIG. 6

c1ccc2c(c1)CN1CCc3c([nH]c4ccccc34)C1=N2 [TR3, 5,7,8,13-tetrahydroindolo[2′,3′:3,4]pyrido[2,1-b]quinazoline]
expression of p-ERK (MAPK signaling pathway): also inhibited
expression of p-JNK (MAPK signaling pathway): also inhibited
expression of p-P38 (MAPK signaling pathway): also inhibited
activation of PPARγ (PPARγ): simultaneously activated PPARα/γ/δ and LXRα/β to a certain extent
level of LDL-C in serum (ApoE^−/− mice): greatly decreased
level of TC in serum (ApoE^−/− mice): greatly decreased
level of TG in serum (ApoE^−/− mice): greatly decreased
maximal fold induction (ABCA1): 2.26
activation of NLRP3 inflammasome in the liver (NLRP3 inflammasome; liver of ApoE−/− mice): significantly inhibited
expression of Caspase-1 protein (NLRP3 inflammasome; [1]): significantly inhibited
expression of IL-1β protein (NLRP3 inflammasome; [1]): significantly inhibited
expression of NLRP3 protein (NLRP3 inflammasome; [1]): significantly inhibited
